# From patent US11827624B2, “Covalent immune recruiter compounds for immune cell recognition and associated uses” (McMaster University, priority 2020, dated 2023)
# Tests used:
# [1] = tested on: human serum anti-DNP IgG (sAb); experiment: BLI Fc capture probe assay of CIR 3 covalent recruitment of serum anti-DNP IgG; type: binding; conditions: 60 nM anti-DNP IgG enriched sample
# Description: The ability of CIR 3 to recruit the tumour antigen PSMA to anti-DNP antibodies was measured using BLI. Anti-DNP IgG was isolated from human serum IgG (Cedarlane Labs) using affinity chromatography. The enriched anti-DNP antibody sample had 63.19 nM of anti-DNP antibody in 1.92 μM of total IgG. The enriched antibody sample was reacted with 2.5 μM of CIR 3 in PBS overnight at room temperature. A sample of 32.75 μM IgG that was depleted of anti-DNP antibody was also reacted with 2.5 μM of CIR 3 in PBS overnight at room temperature as a negative control. The BLI experiment was conducted using an Octet Red96 (ForteBio) with the temperature set at 25° C., the RPM set at 1000, and the acquisition rate set at 5 Hz. The isolated anti-DNP and CIR 3 reaction samples were suspended in 1×Kinetics Buffer (ForteBio) by doping in a 1:10 dilution of 10×Kinetics Buffer stock. A volume of 200 μL of each solution was loaded into a black flat-bottom 96-well plate (Grenier). Fc capture (ProG) biosensors from ForteBio were placed in 1×Kinetics Buffer for 20 minutes prior to the experiment for wetting. First, the probes were placed in 1×Kinetics Buffer for 4 minutes to establish a baseline. […] Association of PSMA to the probe was measured by submerging the probe in 500 nM PSMA for 10 minutes. Dissociation of PSMA from the probe was measured by submerging the probe in 1×Kinetics Buffer for 10 minutes. […]
# [2] = tested on: PSMA+LNCaP cells; experiment: Flow cytometry ADCP assay with mmAb on LNCaP cells; type: cell-based, human
# From the text: ADCP flow cytometry experiments were run on a BD LSRII Flow Cytometer. The human IgG isotype control used was purchased from Jackson ImmunoResearch (009-000-003). The human IgG1 monoclonal anti-DNP antibody (mAb) was purchased from acrobiosystems (DNP-M2). PSMA expression was confirmed with an anti-PSMA antibody Alexa 647 conjugate (Novus Biologicals, Catalog #FAB4234R). For PSMA competition controls, PMPA was purchased from Sigma (SML1612). Hek-293T (PSMA+/−) cell lines were generously given by Dr. Cyril Barinka (Institute of Biotechnology CAS, Czech Republic). U937 cells were generously given by Dr. John Valliant (McMaster University, Canada). LNCaP cells were generously given by Dr. Karen Mossman (McMaster University, Canada). IFN-γ was purchased from Fischer Scientific (PHC4031). Ultra low IgG FBS was purchased from Fischer Scientific (A3381901). RPMI-1640 was purchased as a powder from Fischer Scientific (31800089) and resuspended. DMEM was purchased as a powder from Fischer Scientific (12800082) and resuspended. […]
# For preparation of effector monocytes, 24 hours prior to inducing phagocytosis U937 monocytes were seeded at 500,000 cells/mL and activated with IFN-γ ([…]). After incubation, these cells were then counted and washed twice with serum free assay media (neat RPMI). […] These cells were then counted and washed twice with serum free assay media (neat RPMI). […]
smiles,measurement,setting,value
O=C(O)CC[C@H](NC(=O)N[C@@H](CCCCNC(=O)NCCOCCOCCOCCOCCOCCOCCOCCOC(=O)n1cnc(CCNC(=O)CNc2ccc([N+](=O)[O-])cc2[N+](=O)[O-])c1)C(=O)O)C(=O)O [CIR 3],covalent labeling of enriched serum anti-DNP IgG,[1],substantial covalent antibody labeling and resultant PSMA binding to Fc capture probes
same,ADCP on LNCaP target cells,[2],significant functional advantage compared to non-covalent recruitment across all antibody concentrations tested
